Data: US12402628B2, “Compositions, kits, methods and uses for cleaning, disinfecting, sterilizing and/or treating” (Collidion, Inc., priority 2018, dated 2025)
Where “and” joins values, the source holds several entries; their conditions need not be identical. Identical values can stand only once.

System: Staphylococcus epidermidis (ATCC 12228)
Assay: Bacterial viability assay with Bovine Serum, HOCl and salt controls (Table 30)
Format: cell-based
Conditions: 200 ppm Hypochlorous acid, 5 minutes
Protocol: Stock cultures of pathogenic bacteria Staphylococcus epidermidis (ATCC 12228) were prepared as described in Example 3. The final numeration count uses aliquot volume, count obtained on TSA plate and the total original volume of culture. The remaining amount in the tube was used to inoculate actual test samples. Samples from each composition tested were set up with Bovine Serum as follows: 1) Assays with serum contained 100 μL of pathogenic bacteria suspension, 500 μL of Bovine Serum and 9400 μL of one of the composition formulations shown in Table 29; 2) HOCl control assays contained 100 μL of pathogen bacteria suspension, 500 μL of Bovine Serum and 9400 μL of 350 ppm, 200 ppm, 100 ppm or 50 ppm Hypochlorous acid; 3) Salt control assays contained 100 μL of pathogen bacteria suspension, 500 μL of Bovine Serum and 9400 μL of 140 ppm, 80 ppm, 40 ppm or 20 ppm each of Copper (II) chloride, Iron (II) chloride and zinc chloride or each of Copper (II) chloride, Iron (III) chloride and zinc chloride; and 4) Negative control assays contained 100 μL of pathogen bacteria suspension, 500 μL of Bovine Serum and 9400 μL of sterile water. Samples were exposed for five (5) minutes at which point a neutralizing agent was used to inhibit the activity of the microbial agent being tested. […] The presence of viable bacteria was then measured by counting the number of colonies observed on the agar medium.

Substance: Hypochlorous acid [HOCl Control]
- Log Growth Reduction, HOCl Control: 3.03 log and 3.00 log
